Measured values taken from patent US20250236596A1, “HYDROXYLAMINE-BASED EGFR INHIBITORS FOR TREATMENT OF CANCER WITH BRAIN METASTASES” (University of Georgia Research Foundation, Inc., priority 2022, published 2025).

Tested on: HCC827-luc intracranial tumor
Assay: Intracranial PDX model with luciferase-tagged HCC827 cells
Format: in vivo, BALB/c nude mice
Conditions: 10 mg/kg PO b.i.d
Experimental: Animal experiments were performed at Pharmaron Inc. and animal use was approved by Pharmaron's Institutional Animal Care and Use Committee (IACUC) in Pharmaron (Pharmaron IACUC, Protocol #PK-M-07182022, #PK-R-06012022 and #ON-CELL-XEN-06012022) following the guidance of AAALAC. Six- to eight-week-old male SD rats (approximately 200-300 g) obtained from Si Bei Fu Laboratory Animal Technology Co., six- to eight-week-old male CD1 mice (approximately 20-30 g) obtained from Si Bei Fu Laboratory Animal Technology Co., and six- to eight-week-old female BALB/c nude mice (approximately 20-30 g) obtained from Si Bei Fu Laboratory Animal Technology Co., were used in the pharmacokinetic studies. Six- to eight-week-old female BALB/c nude mice (approximately 18-22 g) obtained from Beijing Anikeeper Biotech Co., Ltd were used in the intracranial PDX study. Animals were housed at 20-25° C. with humidity ranging from 40-70% relative humidity, were exposed to 12 h light and dark cycles, and were supplied with food and water ab libitum.
HCC827 cells stably expressing luciferase (HCC827-luc) were injected intracranially. Briefly, 3×10^5 HCC827-luc tumor cells suspended in 2 μL RPMI1640 medium were injected into the right forebrain of anesthetized mice (anesthetic: intramuscular injection of Zoletl™ 50 (Virbac S.A)). Mice were imaged bi-weekly using IVIS Lumina Ill (Perkin Elmer). Images were acquired 10 min post intraperitoneal (IP) injection with 15 mg/mL (at 5 μL/g body weight) of D-luciferin in anesthetized mice (anesthetic: 1-2% isoflurane inhalation). On day 20 post-cellular inoculation, mice were randomized into 2 treatment groups (n=10 mice per group): 1) 1% methylcellulose as vehicle control and 2) 15 (10 mg/kg) (formulation: 1% methylcellulose), PO, b.i.d. (twice daily) dosing (12 h intervals)×7 days for 21 days. […] Body weights of all mice were measured bi-weekly throughout the study and BW change, expressed in % was calculated using the following formula.
BW change (%)=(BWDay X/BWDay 0)×100
Where, BWDay X is the BW on a given day, and BWDay 0 is BW on Day 0 (initiation of treatment). […]

COc1cc2ncnc(Nc3cccc(Cl)c3F)c2cc1OCCON1CCN(C)CC1 [Compound 15, N-(3-chloro-2-fluorophenyl)-7-methoxy-6-(2-((4-methylpiperazin-1-yl)oxy)ethoxy)quinazolin-4-amine]
mean body weight loss (21-day treatment window): ≤ 10%
adverse clinical events (21 days): no adverse clinical events
intracranial tumor response (bioluminescence) relative to vehicle control (21 days, P=0.0059): profound tumor regression
